# Tested on: acetylation of histone H3 lysine 9 in the p16 genomic region
# Test: Genomic region-specific acetylation analysis (ChIP, anti-histone H3K9 acetyl antibody), p16 genomic region
# Type: cell-based, human
# Conditions: HeLa cells, 150 nM, 7 days; FIG. 10
# Description: In a 10% fetal bovine serum-containing DMEM medium prepared to contain the synthesized compound (SAHA+p16 PIP or SAHA+non-targeting PIP) or SAHA at a final concentration of 150 nM, HeLa cells were cultured at 37° C. in the presence of 5% CO2 for 7 days. After culture, 5×10^6 to 1×10^7 confluent cells were harvested in 100 mm diameter cell culture dishes (Corning 430167) and then subjected to chromatin immunoprecipitation assay with a MILIPORE 17-295 Chromatin Immunoprecipitation (ChIP) assay kit.
# The detailed procedures used are as follows. To the harvested cells cultured for 7 days, formalin was added at a final concentration of 1% and incubated at 37° C. for 10 minutes to fix the cells, whereby proteins and DNAs were crosslinked within the cells. Then, glycine was added at a final concentration of 0.25 M and the supernatant was removed, followed by washing the cell layer. Then, the cell layer was treated with 220 μl lysis buffer and the cell lysate was collected with a scraper. […] Real-time RT-PCR.” More specifically, the purified DNA was quantitatively analyzed with SYBR premix EX Taq (TAKARA BIO, Shiga, Japan) in a Thermal Cycler Dice Real-time System TP-800 (TAKARA BIO, Shiga, Japan). […]
smiles,measurement,value
"CN(C)CCCNC(=O)CCNC(=O)c1cc(NC(=O)c2nc(NC(=O)c3nc(NC(=O)CCNC(=O)c4cc(NC(=O)c5nc(NC(=O)CCCNC(=O)c6cc(NC(=O)c7nc(NC(=O)CCNC(=O)c8cc(NC(=O)c9cc(NC(=O)c%10nc(NC(=O)CCNC(=O)CCNC(=O)c%11ccc(NC(=O)CCCCCCC(=O)NO)cc%11)cn%10C)cn9C)cn8C)cn7C)cn6C)cn5C)cn4C)cn3C)cn2C)cn1C [SAHA+p16 PIP, SAHA-ββImPyPyβImPyγImPyβImImPyβDp]",acetylation of histone H3 lysine 9 in the p16 genomic region,enhanced acetylation
same,enhancement of histone H3 lysine 9 acetylation in the p16 genomic region compared to SAHA alone or SAHA+non-targeting PIP,about 2 fold

# Source: US20110160399A1, “HISTONE MODIFICATION INHIBITOR SPECIFIC TO TARGET GENE” (NIHON UNIVERSITY, priority 2008, published 2011)
